Results: patent US11859242B2, “Template-directed nucleic acid targeting compounds” (Carnegie Mellon University, priority 2017, dated 2024)
“Also recorded” adds a separate entry of the source.

Columns and labels:
[1] = tested on: RNA targets containing hexameric r(CUGCUG)-repeats (T1-T8); experiment: UV melting experiments of MPγPNA probes with RNA targets; type: binding; conditions: for trend of Tms with number of binding-sites in the targets: 10 mM NaPi, 150 mM KCl, 2 mM MgCl2, pH 7.4, 8 μM strand concentration; for differences in the Tms of RNAs with mismatched probes: single (P5) and double (P6) base mismatch probes
Experimental: FIG. 7. UV-melting profiles of PI through P4 with T6. The concentration of T6 was 1 μM and that of each probe was 6 μM, prepared in a physiologically relevant buffer.
FIG. 8. UV-melting profiles of P4-RNA heteroduplexes in a physiologically relevant buffer at 8 μM strand concentration. The samples were prepared by mixing 8 μM of P4 with the respective RNA targets at the following concentrations: T1=8.0 μM, T2=4.0 μM, T4=2.0 μM, T6=1.3 μM, T8=1.0 μM in a physiological buffer and annealed at 90° C. for 5 min, followed by a gradual cooling to room temperature.
FIG. 9. UV-melting transitions of RNAs and the corresponding probe-RNA heteroduplexes containing the perfectly-matched and mismatched sequences as a function of the number of r(CUGCUG)n-binding-sites in the targets. Inset: UV-melting profiles Of RNA with P5 and P6 containing single and double base-mismatches, respectively.
UV Melting Experiments: All UV-melting samples were prepared by mixing MPγPNA with RNA targets at the indicated concentrations in a physiologically simulated buffer (10 mM NaPi (sodium phosphate buffer), 150 mM KCl, 2 mM MgCl2; pH 7-4), and annealed by incubation at 90° C. for 5 min followed by a gradual cooling to room temperature. UV melting curves were collected using Agilent Cary UV-Vis 300 spectrometer equipped with a thermoelectrically controlled multi-cell holder. UV-melting spectra were collected by monitoring UV-absorption at 260 nm from 25° C. to 95° C. in the heating runs, and from 95° C. to 25° C. in the cooling runs, both at the rate of 0.2° C. per min. […] The recorded spectra were smoothed using a 20-point adjacent averaging algorithm. The first derivatives of the melting curves were taken to determine the melting temperatures of the duplex.
All the experiments were conducted at a physiologically relevant ionic strength (10 mM NaPi, 150 mM KCl, and 2 mM MgCl2 at pH 7.4). RNA concentrations were prepared such that the number of r(CUGCUG)-repeats in each sample was the same. […] Based on this finding, we selected P4 and carried out UV-melting study with the various RNA targets. […] Pyrene-pyrene interaction is evident from the inverse absorption profiles of P4-T6 and P4-T8 in the 40-70° C. temperature range. Upon heating, the solvophobic effect becomes more pronounced due to the inverse intensity distribution of vibronic transition of pyrene excimer relative to monomer, Ae^o→o/Am^o→o˜0.6, prior to their dissociation upon further heating. […] The Tms of the P4-RNA series follow a positive linear correlation, Y=66+2X, with X being the number of binding-sites in the targets (FIG. 9). […] Such a phenomenon was also observed with PNA-ligand conjugates.

[2] = tested on: RNA targets containing r(CUGCUG)-repeats (T1-T8); experiment: Steady-state fluorescent measurements of P4-RNA duplexes (pyrene excimer emission); conditions: P4 1 μM, equimolar binding sites T1-T8; 37° C., 1 hr
Experimental: (§1) FIG. 10. Fluorescent spectra of P4-RNA duplexes at equimolar concentrations (P4=1 μM; T1=1 μM, T2=½, T4 ¼, T6=⅙, T8 ⅛) following the incubation at 37° C. for 1 hr and excitation at 345 nm. Inset: Fluorescent signals at 480 nm as a function of time following the addition of P4 (1 μM) to T8 (⅛ μM), and P4 (1 μM) to [T1 (1 μM)+T8 (⅛ μM)] at 37° C.
Steady-State Fluorescent Measurements: All steady-state fluorescence samples were prepared by mixing P4-RNA duplexes at the indicated concentrations in a simulated physiological buffer and annealed by incubation at 90° C. for 5 min, followed by a gradual cooling to 37° C. The samples were incubated at 37° C. for 1 hr before the measurements. Steady-state fluorescence data were collected at 37° C. by Cary Eclipse Fluorescence Spectrometer. (εex=350 nm and εem=480 nm) with slit size.
(§2) To further corroborate these findings, we carried out fluorescent measurements under identical conditions. The samples were excited at 340 nm, and the fluorescent signals were recorded from 345 to 650 nm. Characteristic of the pyrene-pyrene excimer formation is the emission at 480 nm (FIG. 10). […] The samples were markedly different under UV-illumination, such that they could be distinguished with the naked eyes (FIG. 11).

[3] = tested on: T8 RNA (r(CUGCUG)-repeats), with or without competing T1; experiment: Real-time fluorescent binding kinetics
Experimental: as §1
Real-Time Fluorescent Binding Kinetics: For real-time fluorescent kinetic experiment the samples were prepared as followed: (1) P4 alone, (2) P4, T1 and T8 annealed prior to the measurement, (3) addition of P4 to T8 at 37° C., and (4) addition of P4 to T8 in the presence of T1 at equimolar binding sites. Realtime fluorescence data were collected at 37° C. by Cary Eclipse Fluorescence Spectrometer. (εex=350 nm and εem=480 nm) with slit size.
as §2

[4] = tested on: normal-length T6 and pathogenic T48 [r(CUG)96] RNA; experiment: Competitive binding assay (agarose gel, SYBR-Gold); conditions: equimolar binding-sites of T6 and T48, 37° C. for 16 hrs
Experimental: FIG. 12. Selective binding of r(CUGCUG)n-RNA transcripts by P4. The samples were prepared by mixing pre-annealed RNAs with probes at 37° C. for 4 hrs. The ratios of P4 to the total RNA binding-sites were 0 (lane 3), ¼ (lane 4), ½ (lane 5), 1/1 (lane 6); and for the mismatched P5 at 1/1 (lane 7). Competitive Binding Assay: T6 was purchased from IDT. T48, the same as r(CUG)96, was prepared as previous described, except that the DNA template was (CTG)96. T6 and T48 were separately annealed by heating up to 90° C. for 5 min and gradually cooled to room temperature. Probes and RNA targets were mixed at the indicated concentrations and incubated in a physiologically simulated buffer at 37° C. for 4 hr in silicon-coated Eppendorf tubes. The samples were then loaded onto 2% agarose-gel containing IX SYBR-Gold with Tris-borate buffer and electrophoretically separated at 100 V for 15 min. The bands were visualized by UV-Transilluminator. To assess the recognition selectivity of P4 probe, we carried out a competitive binding assay. Equimolar binding-sites of the normal-length T6 and the pathogenic T48 [r(CUG)96, prepared according to our published protocol, were incubated with different concentrations of P4 at 37° C. for 16 hrs. The resulting mixtures were analyzed by agarose-gel and stained with SYBR-Gold for visualization.

[5] = tested on: rCUG^exp-MBNL1 complex (T48 with GST-MBNL1-F1); experiment: Analysis of T48-MBNL1 disruption by probe (gel-shift assay); type: biochemical; conditions: T48 25 nM, GST-MBNL1-F1 400 nM; increasing probe concentrations
Experimental: FIG. 13. Displacement of MBNL1 from T48 by P4. P-T48 was allowed to form complexes with GST-MBNL1-FI prior to the addition of P4. The samples were prepared in a physiologically relevant buffer at the final T48 and GST-MBNL1-FI concentration of 25 nM and 400 nM, respectively.
Analysis of T48-MBNL1 Disruption by Probe: T48 and GST-MBNL1-F1 were prepared as previously described. Radioisotopically labeled T48 was incubated with GST-MBNL1-F1 in buffer containing 50 mM Tris, 50 mM NaCl, 50 mM KCl and 1 mM MgCl2 (pH 8.0) at the indicated concentrations at 25° C. for 30 minutes. The indicated concentration of P4 was added to T48-MBNL1 complex. The samples were immediately loaded to 1.5% agarose gels with 1× Tris-borate buffer and electrophoretically separated at 100 V for 2 hrs. The bands were visualized by phosphorimaging and quantified with ImageQuant (Molecular Dynamics).
Next, we determined whether P4 can disrupt the rCUG^exp-MBNL1 complex by performing a gel-shift assay. The RNA-protein complex was prepared by incubating 5′-^32P-labelled T48 with MBNL1 at a physiologically relevant condition. Upon confirmation of their binding, P4 was added and the resulting mixtures were incubated at 37° C. for 4 hrs prior to their analysis by nondenaturing PAGE and autoradiography. Formation of the T48-MBNL1 complexes is evident by the smeared patterns observed in lanes 2 through 4 of FIG. 13. […]

Substance	trend of Tms with number of binding-sites in the targets [1]	recognition selectivity / binding to T48 versus T6 [4]	differences in the Tms of RNAs with mismatched probes [1]	also measured
H-^L-Arg-CAGCAG-^LArg-NH2 [P1]	plateaued at X˜3	–	–	–
H-^LArg-^LLys(Pyr)-CAGCAG-^LLys(Pyr)-^LArg-NH2 [P4]	monotonically increased with the number of binding-sites	able to discriminate the pathogenic T48 from the wt-T12	–	binding cooperativity (UV-melting profiles) ([1]; with T6, T6 1 μM, probe 6 μM, physiologically relevant buffer, comparison of linker lengths P2 through P4): highest degree of binding cooperativity; also recorded: cooperative binding was clearly observed; fluorescent intensities at 480 nm (pyrene-pyrene excimer) with number of binding-sites in RNAs [2]: gradual increase in the fluorescent intensities at 480 nm; hybridization lag-time with competing T1 strand ([3]; P4 1 μM added to T1 1 μM + T8 ⅛ μM (equimolar binding-sites) at 37° C.): 2 min; time to nearly complete hybridization to T8 ([3]; P4 1 μM added to T8 ⅛ μM at 37° C., fluorescence at 480 nm): ≤ 10 min; interaction with single-binding-site RNA ([3]; physiologically simulated condition, T1 competitor): weak and transient; disruption of rCUG^exp-MBNL1 complex / displacement of MBNL1 from T48 [5]: able to disrupt the rCUG^exp-MBNL1 complex
H-^LArg-^LLys(Pyr)-CATCAG-^LLys(Pyr)-^LArg-NH2 [P5]	–	No evidence of binding	no discernible differences	–
H-^LArg-^LLys(Pyr)-CTGCTG-^LLys(Pyr)-^LArg-NH2 [P6]	–	–	no discernible differences	–
